The results in this text go back to ChEMBL document CHEMBL4184081, “Discovery of potent and selective inhibitors of calmodulin-dependent kinase II (CaMKII)” (Bioorg Med Chem Lett, 2018).

pEC50, pIC50: −log10 of the molar value. Values after ≈ are worked out from the molar mass of the structure shown.

Series [1] deals with Voltage-gated inwardly rectifying potassium channel KCNH2 (Homo sapiens, UniProt Q12809). Kind of series: Inhibition of human ERG.
The target of series [2] is CaM kinase II delta/gamma (Rattus norvegicus, UniProt P11730+P15791). Kind of series: Inhibition of CaMK2gamma/delta in neonatal rat ventricular myocytes assessed as phospholamban phosphorylation after 4 hrs by Hoechst 33342 fluorescence based assay. Type of series: cell-based.
CaM kinase II delta/gamma, sequence (P15791 whole entry): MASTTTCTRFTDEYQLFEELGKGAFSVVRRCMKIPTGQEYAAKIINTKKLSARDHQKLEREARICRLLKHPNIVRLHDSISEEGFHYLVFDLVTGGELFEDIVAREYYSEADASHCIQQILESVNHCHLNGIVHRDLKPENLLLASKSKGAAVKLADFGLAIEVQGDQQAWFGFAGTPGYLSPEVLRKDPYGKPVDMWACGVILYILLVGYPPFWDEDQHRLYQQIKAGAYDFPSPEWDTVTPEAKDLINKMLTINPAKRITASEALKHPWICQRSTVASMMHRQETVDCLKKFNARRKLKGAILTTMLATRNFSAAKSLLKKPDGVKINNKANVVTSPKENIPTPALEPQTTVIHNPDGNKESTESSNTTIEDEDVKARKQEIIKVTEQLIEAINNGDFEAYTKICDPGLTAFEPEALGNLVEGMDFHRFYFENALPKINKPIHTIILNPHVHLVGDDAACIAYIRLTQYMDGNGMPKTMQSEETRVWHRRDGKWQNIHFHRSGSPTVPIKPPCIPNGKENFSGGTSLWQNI
CaM kinase II delta/gamma, sequence (P11730 whole entry): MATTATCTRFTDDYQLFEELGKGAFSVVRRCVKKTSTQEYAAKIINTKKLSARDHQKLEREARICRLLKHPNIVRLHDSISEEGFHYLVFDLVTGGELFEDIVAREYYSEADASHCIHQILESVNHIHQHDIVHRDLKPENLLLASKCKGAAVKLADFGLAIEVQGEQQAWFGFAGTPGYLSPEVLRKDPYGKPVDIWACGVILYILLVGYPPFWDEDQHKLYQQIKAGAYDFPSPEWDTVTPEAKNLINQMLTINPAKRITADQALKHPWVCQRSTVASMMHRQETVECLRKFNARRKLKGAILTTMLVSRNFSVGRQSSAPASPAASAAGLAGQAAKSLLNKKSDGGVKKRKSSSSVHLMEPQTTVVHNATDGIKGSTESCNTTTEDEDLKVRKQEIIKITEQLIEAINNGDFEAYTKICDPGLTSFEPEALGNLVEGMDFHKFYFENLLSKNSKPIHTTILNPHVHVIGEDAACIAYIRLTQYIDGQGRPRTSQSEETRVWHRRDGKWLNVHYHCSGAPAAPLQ
Series [3] addresses CaM kinase II alpha/beta (Rattus norvegicus, UniProt P08413+P11275). As to the kind of experiment: Inhibition of CaMK2alpha/beta in neonatal rat cortical neurons assessed as phospholamban phosphorylation after 4 hrs by Hoechst 33342 fluorescence-based assay. Type of series: protein-complex assay.
Series [4] can be described thus: Half life in rat liver microsomes. Type of series: ADME, microsome. A general note: Liver microsomes are vesicles of endoplasmic reticulum, rich in cytochrome P450 enzymes.
Series [5] can be described thus: Half life in dog liver microsomes. Type of series: ADME, Canis lupus familiaris, microsome.
A short description of series [6]: Half life in human liver microsomes. Type of series: ADME, microsome.
A short description of series [7]: Unbound plasma concentration in rat. Type of series: ADME, organism-based.
Series [8] is described as follows: Unbound plasma concentration in dog. Type of series: ADME, organism-based, Canis lupus familiaris.
The nature of series [9]: Unbound plasma concentration in human. Type of series: ADME, organism-based.
Series [10] is described as follows: Thermodynamic aqueous solubility of the compound in pH 2.2. Type of series: physicochemical. The settings on record: buffer, read-out: Therm_solubility.
The nature of series [11]: Thermodynamic aqueous solubility of the compound in pH 7.2. Type of series: physicochemical. The settings on record: buffer, read-out: Therm_solubility.
Series [12] in a line: Clearance in rat at 1 mg/kg, iv. Type of series: ADME, organism-based. The settings on record: in vivo.
A short description of series [13]: Volume of distribution at steady state in rat at 1 mg/kg, iv. Type of series: ADME, organism-based. The settings on record: in vivo, read-out: Vdss.
A short description of series [14]: Half life in rat at 1 mg/kg, iv. The conditions noted are these: in vivo. Type of series: ADME, organism-based.
Series [15] deals with T1, Cytochrome P450 1A2 (Homo sapiens, UniProt P05177).
T1 sequence (P05177 whole entry): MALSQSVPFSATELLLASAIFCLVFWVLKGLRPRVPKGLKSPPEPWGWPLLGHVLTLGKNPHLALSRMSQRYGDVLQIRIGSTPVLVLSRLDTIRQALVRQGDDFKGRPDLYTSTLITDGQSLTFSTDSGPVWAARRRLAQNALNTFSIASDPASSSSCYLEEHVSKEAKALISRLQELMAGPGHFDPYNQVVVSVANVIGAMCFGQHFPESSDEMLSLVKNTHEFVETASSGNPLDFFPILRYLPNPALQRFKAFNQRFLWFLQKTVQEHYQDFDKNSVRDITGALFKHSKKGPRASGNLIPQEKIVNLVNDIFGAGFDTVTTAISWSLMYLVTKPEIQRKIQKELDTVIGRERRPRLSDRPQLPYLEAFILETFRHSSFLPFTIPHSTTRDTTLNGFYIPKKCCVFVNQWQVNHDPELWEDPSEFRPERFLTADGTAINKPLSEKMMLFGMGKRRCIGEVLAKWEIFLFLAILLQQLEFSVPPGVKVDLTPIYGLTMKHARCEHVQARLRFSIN
Kind of series: Inhibition of CYP1A2 (unknown origin). Type of series: ADME.

Series [16] has as its target Cytochrome P450 2C9 (Homo sapiens, UniProt P11712). Kind of series: Inhibition of CYP2C9 (unknown origin). Type of series: ADME.
For series [17], the target named is Cytochrome P450 2C19 (Homo sapiens, UniProt P33261). As to the kind of experiment: Inhibition of CYP2C19 (unknown origin). Type of series: ADME.
Cytochrome P450 2C19, sequence (P33261 whole entry): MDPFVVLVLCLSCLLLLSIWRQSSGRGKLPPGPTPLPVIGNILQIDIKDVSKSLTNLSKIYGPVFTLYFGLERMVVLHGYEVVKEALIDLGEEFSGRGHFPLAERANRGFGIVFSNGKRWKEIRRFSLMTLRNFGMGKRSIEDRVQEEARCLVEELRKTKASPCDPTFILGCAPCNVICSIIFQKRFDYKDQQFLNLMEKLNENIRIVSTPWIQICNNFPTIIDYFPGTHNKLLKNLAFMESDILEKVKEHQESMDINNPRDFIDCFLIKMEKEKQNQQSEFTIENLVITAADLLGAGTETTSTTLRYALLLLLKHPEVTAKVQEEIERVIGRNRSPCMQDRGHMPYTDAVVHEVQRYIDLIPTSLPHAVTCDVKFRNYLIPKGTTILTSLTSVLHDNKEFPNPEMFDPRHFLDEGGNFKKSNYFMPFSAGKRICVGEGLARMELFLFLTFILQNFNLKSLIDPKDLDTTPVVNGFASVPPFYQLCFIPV
Series [18] addresses Cytochrome P450 2D6 (Homo sapiens, UniProt P10635). Kind of series: Inhibition of CYP2D6 (unknown origin). Type of series: ADME.
Series [19] concerns the target Cytochrome P450 3A4 (Homo sapiens, UniProt P08684). As to the kind of experiment: Inhibition of CYP3A4 (unknown origin). Type of series: ADME.
Series [20] is described as follows: AUC (0 to infinity) in rat at 5 mg/kg, po. Type of series: ADME, organism-based. The arrangement: dose 5 mg/kg, time infinity, route oral. The conditions noted are these: in vivo.
Series [21] can be described thus: Oral bioavailability in rat at 5 mg/kg. Type of series: ADME, organism-based. The settings on record: in vivo.

Voltage-gated inwardly rectifying potassium channel KCNH2, sequence (Q12809 whole entry): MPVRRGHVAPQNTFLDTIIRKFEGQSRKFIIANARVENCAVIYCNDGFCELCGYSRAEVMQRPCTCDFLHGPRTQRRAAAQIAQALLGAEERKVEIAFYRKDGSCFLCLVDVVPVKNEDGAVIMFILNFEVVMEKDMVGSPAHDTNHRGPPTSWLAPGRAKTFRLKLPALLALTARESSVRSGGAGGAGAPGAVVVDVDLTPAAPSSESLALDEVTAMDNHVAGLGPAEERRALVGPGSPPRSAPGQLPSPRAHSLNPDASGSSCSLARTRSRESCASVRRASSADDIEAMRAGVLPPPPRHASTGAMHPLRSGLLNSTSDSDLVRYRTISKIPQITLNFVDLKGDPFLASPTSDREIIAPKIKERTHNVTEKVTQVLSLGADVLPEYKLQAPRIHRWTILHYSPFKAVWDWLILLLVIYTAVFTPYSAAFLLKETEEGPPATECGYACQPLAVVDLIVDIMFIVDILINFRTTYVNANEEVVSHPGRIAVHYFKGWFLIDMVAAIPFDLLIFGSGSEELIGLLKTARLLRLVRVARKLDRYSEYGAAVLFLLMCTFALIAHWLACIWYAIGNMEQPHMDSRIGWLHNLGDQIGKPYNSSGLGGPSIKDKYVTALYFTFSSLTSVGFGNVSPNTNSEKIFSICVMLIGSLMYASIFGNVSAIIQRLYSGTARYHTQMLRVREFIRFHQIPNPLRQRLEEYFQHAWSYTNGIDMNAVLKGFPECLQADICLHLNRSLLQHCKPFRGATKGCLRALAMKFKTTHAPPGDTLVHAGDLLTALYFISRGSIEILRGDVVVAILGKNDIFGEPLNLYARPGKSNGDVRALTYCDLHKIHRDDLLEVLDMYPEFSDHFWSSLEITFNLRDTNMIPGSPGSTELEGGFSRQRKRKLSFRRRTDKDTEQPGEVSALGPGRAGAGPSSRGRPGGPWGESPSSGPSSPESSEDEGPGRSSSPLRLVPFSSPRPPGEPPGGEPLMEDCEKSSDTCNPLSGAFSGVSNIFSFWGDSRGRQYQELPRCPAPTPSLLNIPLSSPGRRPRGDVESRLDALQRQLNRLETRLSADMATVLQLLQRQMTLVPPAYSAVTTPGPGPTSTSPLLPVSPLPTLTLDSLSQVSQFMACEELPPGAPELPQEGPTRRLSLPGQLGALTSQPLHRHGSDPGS
CaM kinase II alpha/beta, sequence (P11275 whole entry): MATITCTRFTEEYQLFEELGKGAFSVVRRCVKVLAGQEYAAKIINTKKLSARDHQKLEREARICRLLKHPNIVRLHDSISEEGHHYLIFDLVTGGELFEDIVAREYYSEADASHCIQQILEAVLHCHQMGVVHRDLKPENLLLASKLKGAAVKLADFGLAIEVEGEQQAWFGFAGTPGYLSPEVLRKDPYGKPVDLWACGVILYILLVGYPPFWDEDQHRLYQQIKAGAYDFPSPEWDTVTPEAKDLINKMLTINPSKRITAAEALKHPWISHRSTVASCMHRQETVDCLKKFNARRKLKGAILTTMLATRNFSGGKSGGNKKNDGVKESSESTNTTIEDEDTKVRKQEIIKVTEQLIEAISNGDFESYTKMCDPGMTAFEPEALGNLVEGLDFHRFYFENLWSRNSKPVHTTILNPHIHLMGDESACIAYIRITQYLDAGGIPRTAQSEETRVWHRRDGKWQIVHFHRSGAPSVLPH
CaM kinase II alpha/beta, sequence (P08413 whole entry): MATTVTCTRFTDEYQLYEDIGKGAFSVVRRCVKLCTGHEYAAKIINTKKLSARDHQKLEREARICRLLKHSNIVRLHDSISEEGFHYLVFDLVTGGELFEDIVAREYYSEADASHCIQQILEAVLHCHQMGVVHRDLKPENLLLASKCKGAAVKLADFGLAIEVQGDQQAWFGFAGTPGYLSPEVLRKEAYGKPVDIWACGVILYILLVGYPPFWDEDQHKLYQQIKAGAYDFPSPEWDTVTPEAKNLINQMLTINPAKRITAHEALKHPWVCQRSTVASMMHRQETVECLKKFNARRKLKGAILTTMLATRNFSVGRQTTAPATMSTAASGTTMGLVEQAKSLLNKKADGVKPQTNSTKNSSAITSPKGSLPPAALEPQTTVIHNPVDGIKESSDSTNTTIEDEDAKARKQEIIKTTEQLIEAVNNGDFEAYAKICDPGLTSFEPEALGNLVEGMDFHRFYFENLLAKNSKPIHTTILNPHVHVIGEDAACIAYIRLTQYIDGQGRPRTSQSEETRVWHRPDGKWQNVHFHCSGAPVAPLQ
Cytochrome P450 2C9, sequence (P11712 whole entry): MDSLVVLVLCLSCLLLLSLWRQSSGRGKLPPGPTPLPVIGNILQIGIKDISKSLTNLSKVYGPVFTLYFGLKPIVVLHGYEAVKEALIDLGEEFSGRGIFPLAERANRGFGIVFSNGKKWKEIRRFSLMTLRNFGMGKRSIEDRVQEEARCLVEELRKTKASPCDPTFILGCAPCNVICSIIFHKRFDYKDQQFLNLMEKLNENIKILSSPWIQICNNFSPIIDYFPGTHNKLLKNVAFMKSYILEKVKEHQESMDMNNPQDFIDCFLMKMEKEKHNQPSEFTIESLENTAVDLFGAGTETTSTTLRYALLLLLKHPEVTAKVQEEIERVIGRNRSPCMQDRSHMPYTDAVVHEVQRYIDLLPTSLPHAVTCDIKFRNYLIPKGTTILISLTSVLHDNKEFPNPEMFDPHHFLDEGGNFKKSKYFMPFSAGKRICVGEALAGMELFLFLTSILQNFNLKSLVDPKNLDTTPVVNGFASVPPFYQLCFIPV
Cytochrome P450 2D6, sequence (P10635 whole entry): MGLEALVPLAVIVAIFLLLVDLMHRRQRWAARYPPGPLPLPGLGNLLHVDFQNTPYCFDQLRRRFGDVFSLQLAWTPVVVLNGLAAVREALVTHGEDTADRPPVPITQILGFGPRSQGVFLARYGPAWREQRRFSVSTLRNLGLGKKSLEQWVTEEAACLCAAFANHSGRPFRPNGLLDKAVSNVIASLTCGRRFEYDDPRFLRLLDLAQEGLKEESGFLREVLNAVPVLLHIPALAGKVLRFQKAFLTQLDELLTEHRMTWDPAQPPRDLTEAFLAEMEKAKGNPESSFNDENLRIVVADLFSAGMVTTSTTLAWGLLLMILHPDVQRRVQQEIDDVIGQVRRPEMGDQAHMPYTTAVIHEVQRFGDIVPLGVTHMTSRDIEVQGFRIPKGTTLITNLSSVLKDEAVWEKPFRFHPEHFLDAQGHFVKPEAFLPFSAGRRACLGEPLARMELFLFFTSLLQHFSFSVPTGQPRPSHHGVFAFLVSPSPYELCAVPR

For orientation: pIC50 means the negative decadic logarithm of the IC50, by convention in mol/L. Broadly, the pEC50 is the negative decadic logarithm of the EC50, by convention in mol/L. In general, half-life refers to the time needed for the level to fall by half in the phase considered. A high value points to slow loss. A word on the fraction unbound: it is free concentration divided by total concentration. Lower therefore signals extensive binding. In general, clearance refers to a measure of how efficiently the substance is removed, as volume per time. Read a low clearance as inefficient removal. In series [1], `CCN(CC)[C@@H](C)CNC(=O)c1cc(-c2cnn3ccc(-c4cccs4)nc23)nc(N2CC(O)C2)c1` had a pIC50 below 4.52. Also, the negative logarithm of the EC50 (pEC50) is 8.21 in [2] and 6.56 in series [3]. In addition, the half-life in series [4] was 48 min; in series [5] it was 27 min; in [6], 58 min; in series [14], 353 min. Also, the results for the fraction unbound in [7], in series [8] and in series [9] were 0.363, 0.291 and 0.177, respectively. Also, the results for the solubility thermodynamic in [10] and in series [11] were 15000 µg/mL (≈ 29.7 mM) and 8400 µg/mL (≈ 16.6 mM), respectively. The molecule also showed a clearance in [12] of 80.8 mL/min/kg. Also, the Vd in [13] is 22.1 L/kg.
In [1], `CCN(CC)[C@@H](C)CNC(=O)c1ccnc(-c2cnn3ccc(-c4cccs4)nc23)c1` showed a negative-log IC50 (pIC50) of 6.14.
In general, AUC(0-inf) refers to total exposure, with the tail of the curve extrapolated. A higher AUC(0-inf) goes with more exposure. As a reminder, the bioavailability is the share of a dose that reaches the circulation, judged against a reference dose that is usually intravenous. Read a low bioavailability as poor availability. As to `CCN(CC)[C@@H](C)CNC(=O)c1cc(-c2cnn3ccc(-c4cccs4)nc23)nc(N2CC(OC)C2)c1`, the pEC50 was 8.13 in series [2] and 6.92 in series [3]. Also, the pIC50 in series [15], in series [16], in series [17], in [18] and in [19] was below 4.60 throughout. For the same molecule, the half-life was 61 min in series [4], 43 min in series [5], 62 min in series [6] and 258 min in series [14]. Besides, the results for the fraction unbound in series [7], in [8] and in series [9] were 0.151, 0.159 and 0.071, respectively. The solubility thermodynamic in series [10] was above 20000 µg/mL; in series [11] it was 200 µg/mL (≈ 0.385 mM). The molecule further showed a clearance in series [12] of 25.5 mL/min/kg. Further, in [13], the Vd is 7.34 L/kg. The molecule also displayed a total exposure AUC(0-inf) in series [20] of 3 µM·h. The bioavailability in series [21] amounted to 73%.
`CCN(CC)CCNC(=O)c1ccnc(-c2cnn3ccc(-c4cccs4)nc23)c1`: in series [1], the pIC50 was 5.93.
Same read-out and setting: with `CCc1cc(C(=O)NC[C@H](C)N(CC)CC)cc(-c2cnn3ccc(-c4cccs4)nc23)n1` the figure was 5.48.
